Test results: PubChem BioAssay (NCI)
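Tested at 5 concentrations; 48 h exposure; 96-well plates; endpoints linearly interpolated, else capped at highest concentration. GI50 is the concentration that inhibits growth by half. TGI: concentration producing complete growth inhibition.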

Tests used:
Experiment in all cases: NCI-60 cell line screen, 48 h; in the data active means GI50 below about 0.43 µM; inactive means the rest
SF-295 CNS = system: SF-295 CNS
MDA-MB-231 breast = system: MDA-MB-231 breast
UO-31 renal = system: UO-31 renal
NCI-H522 lung = system: NCI-H522 lung
K-562 leukemia = system: K-562 leukemia
SW-620 colon = system: SW-620 colon
BT-549 breast = system: BT-549 breast
SF-268 CNS = system: SF-268 CNS
SR leukemia = system: SR leukemia
SN12C renal = system: SN12C renal
IGROV1 ovarian = system: IGROV1 ovarian
RPMI-8226 leukemia = system: RPMI-8226 leukemia
HT29 colon = system: HT29 colon
DU-145 prostate = system: DU-145 prostate
CCRF-CEM leukemia = system: CCRF-CEM leukemia
PC-3 prostate = system: PC-3 prostate
HCT-116 colon = system: HCT-116 colon
NCI/ADR-RES ovarian = system: NCI/ADR-RES ovarian
NCI-H226 lung = system: NCI-H226 lung
A549 NSCLC = system: A549 NSCLC
OVCAR-3 ovarian = system: OVCAR-3 ovarian
LOX IMVI melanoma = system: LOX IMVI melanoma
NCI-H460 lung = system: NCI-H460 lung
M14 melanoma = system: M14 melanoma
EKVX NSCLC = system: EKVX NSCLC
HOP-62 NSCLC = system: HOP-62 NSCLC
KM12 colon = system: KM12 colon
T-47D breast = system: T-47D breast
SK-OV-3 ovarian = system: SK-OV-3 ovarian
HOP-92 NSCLC = system: HOP-92 NSCLC
SK-MEL-2 melanoma = system: SK-MEL-2 melanoma
NCI-H23 lung = system: NCI-H23 lung
HL-60(TB) leukemia = system: HL-60(TB) leukemia
COLO 205 colon = system: COLO 205 colon
MCF7 breast = system: MCF7 breast
786-0 renal = system: 786-0 renal
UACC-257 melanoma = system: UACC-257 melanoma
OVCAR-5 ovarian = system: OVCAR-5 ovarian
SNB-19 CNS = system: SNB-19 CNS
CAKI-1 renal = system: CAKI-1 renal
HCT-15 colon = system: HCT-15 colon
UACC-62 melanoma = system: UACC-62 melanoma
U251 CNS = system: U251 CNS
HS 578T breast = system: HS 578T breast
ACHN renal = system: ACHN renal
OVCAR-8 ovarian = system: OVCAR-8 ovarian
SK-MEL-5 melanoma = system: SK-MEL-5 melanoma
MDA-MB-435 = system: MDA-MB-435
MALME-3M melanoma = system: MALME-3M melanoma
TK-10 renal = system: TK-10 renal
A498 renal = system: A498 renal
SF-539 CNS = system: SF-539 CNS
SK-MEL-28 melanoma = system: SK-MEL-28 melanoma
SNB-75 CNS = system: SNB-75 CNS
RXF 393 renal = system: RXF 393 renal
OVCAR-4 ovarian = system: OVCAR-4 ovarian
MOLT-4 leukemia = system: MOLT-4 leukemia
HCC-2998 colon = system: HCC-2998 colon

COc1cccc(Nc2nc(-c3cccs3)nc3ccc(Br)cc23)c1
78.7 µM: TGI (SNB-19 CNS)
57.9 µM: TGI (HOP-62 NSCLC)
> 100 µM: TGI (SF-295 CNS) | TGI (MDA-MB-231 breast) | TGI (UO-31 renal) | TGI (NCI-H522 lung) | TGI (K-562 leukemia) | TGI (SW-620 colon) | TGI (BT-549 breast) | TGI (SF-268 CNS) | TGI (SR leukemia) | TGI (SN12C renal) | TGI (IGROV1 ovarian) | TGI (RPMI-8226 leukemia) | TGI (HT29 colon) | TGI (DU-145 prostate) | TGI (CCRF-CEM leukemia) | TGI (PC-3 prostate) | TGI (HCT-116 colon) | TGI (NCI/ADR-RES ovarian) | TGI (NCI-H226 lung) | TGI (A549 NSCLC) | TGI (OVCAR-3 ovarian) | TGI (LOX IMVI melanoma) | TGI (NCI-H460 lung) | TGI (M14 melanoma) | TGI (EKVX NSCLC) | TGI (KM12 colon) | TGI (T-47D breast) | TGI (SK-OV-3 ovarian) | TGI (HOP-92 NSCLC) | TGI (SK-MEL-2 melanoma) | TGI (NCI-H23 lung) | TGI (HL-60(TB) leukemia) | TGI (COLO 205 colon) | TGI (786-0 renal) | TGI (UACC-257 melanoma) | TGI (OVCAR-5 ovarian) | TGI (CAKI-1 renal) | TGI (HCT-15 colon) | TGI (UACC-62 melanoma) | TGI (U251 CNS) | TGI (HS 578T breast) | TGI (ACHN renal) | TGI (OVCAR-8 ovarian) | TGI (SK-MEL-5 melanoma) | TGI (MDA-MB-435) | TGI (MALME-3M melanoma) | TGI (TK-10 renal) | TGI (A498 renal) | TGI (SF-539 CNS)
63.8 µM: TGI (MCF7 breast)

N=c1c2c(-c3ccccc3)c(-c3ccccc3)n(Cc3ccccc3)c2ncn1CCCO
14.4 µM: TGI (UACC-62 melanoma)
3.4 µM: TGI (SK-MEL-28 melanoma)
7.6 µM: TGI (K-562 leukemia)
21.3 µM: TGI (EKVX NSCLC) | TGI (SNB-19 CNS)
16.5 µM: TGI (UO-31 renal)
12.8 µM: TGI (CCRF-CEM leukemia)
8.43 µM: TGI (SNB-75 CNS)
2.02 µM: TGI (COLO 205 colon)
18.1 µM: TGI (T-47D breast)
21.2 µM: TGI (BT-549 breast)
17.9 µM: TGI (SK-OV-3 ovarian)
19.6 µM: TGI (SN12C renal)
11.4 µM: TGI (MOLT-4 leukemia)
19.3 µM: TGI (TK-10 renal)
13.4 µM: TGI (OVCAR-4 ovarian)
24.3 µM: TGI (NCI-H23 lung)
> 55.9 µM: TGI (HS 578T breast)
inactive: GI50 (SK-MEL-28 melanoma) 1.44 µM | GI50 (SF-295 CNS) 0.58 µM | GI50 (MDA-MB-231 breast) 1.4 µM | GI50 (UO-31 renal) 2.24 µM | GI50 (SNB-75 CNS) 1.38 µM | GI50 (NCI-H522 lung) 0.756 µM | GI50 (K-562 leukemia) 0.959 µM | GI50 (RXF 393 renal) 0.443 µM | GI50 (BT-549 breast) 7.81 µM | GI50 (SF-268 CNS) 0.894 µM | GI50 (SN12C renal) 1.99 µM | GI50 (IGROV1 ovarian) 2.08 µM | GI50 (RPMI-8226 leukemia) 2.86 µM | GI50 (DU-145 prostate) 3.14 µM | GI50 (CCRF-CEM leukemia) 1.87 µM | GI50 (PC-3 prostate) 1.62 µM | GI50 (NCI/ADR-RES ovarian) 1.33 µM | GI50 (NCI-H226 lung) 0.817 µM | GI50 (A549 NSCLC) 0.561 µM | GI50 (OVCAR-3 ovarian) 1.38 µM | GI50 (LOX IMVI melanoma) 0.5 µM | GI50 (NCI-H460 lung) 0.448 µM | GI50 (M14 melanoma) 2 µM | GI50 (EKVX NSCLC) 4.4 µM | GI50 (HOP-62 NSCLC) 1.03 µM | GI50 (KM12 colon) 1.01 µM | GI50 (T-47D breast) 3.13 µM | GI50 (SK-OV-3 ovarian) 4.18 µM | GI50 (OVCAR-4 ovarian) 1.43 µM | GI50 (SK-MEL-2 melanoma) 1.77 µM | GI50 (NCI-H23 lung) 4.32 µM | GI50 (HL-60(TB) leukemia) 1.77 µM | GI50 (MOLT-4 leukemia) 0.743 µM | GI50 (COLO 205 colon) 0.681 µM | GI50 (MCF7 breast) 0.472 µM | GI50 (786-0 renal) 1.92 µM | GI50 (UACC-257 melanoma) 1.75 µM | GI50 (OVCAR-5 ovarian) 7.27 µM | GI50 (SNB-19 CNS) 2.21 µM | GI50 (CAKI-1 renal) 0.692 µM | GI50 (HCT-15 colon) 0.696 µM | GI50 (UACC-62 melanoma) 1.91 µM | GI50 (U251 CNS) 0.704 µM | GI50 (HS 578T breast) 8.36 µM | GI50 (HCC-2998 colon) 1.43 µM | GI50 (ACHN renal) 0.457 µM | GI50 (OVCAR-8 ovarian) 0.739 µM | GI50 (SK-MEL-5 melanoma) 0.901 µM | GI50 (MDA-MB-435) 1.61 µM | GI50 (MALME-3M melanoma) 1.55 µM | GI50 (TK-10 renal) 5.37 µM | GI50 (A498 renal) 3.3 µM | GI50 (SF-539 CNS) 1.24 µM
4.84 µM: TGI (HCT-116 colon)
4.17 µM: TGI (SF-539 CNS)
15.5 µM: TGI (SW-620 colon) | TGI (A549 NSCLC) | TGI (HCT-15 colon)
13.3 µM: TGI (U251 CNS)
12.2 µM: TGI (PC-3 prostate)
8.33 µM: TGI (MDA-MB-231 breast)
20.8 µM: TGI (SF-268 CNS)
14.3 µM: TGI (KM12 colon) | TGI (ACHN renal)
2.77 µM: TGI (LOX IMVI melanoma)
2.5 µM: TGI (RXF 393 renal)
19.1 µM: TGI (DU-145 prostate)
5.64 µM: TGI (SK-MEL-2 melanoma)
3.46 µM: TGI (NCI-H522 lung)
2.07 µM: TGI (MCF7 breast)
6.54 µM: TGI (M14 melanoma)
4.74 µM: TGI (HL-60(TB) leukemia)
8.08 µM: TGI (OVCAR-3 ovarian)
3.32 µM: TGI (SF-295 CNS)
6.4 µM: TGI (SR leukemia)
12.9 µM: TGI (NCI-H226 lung)
7.07 µM: TGI (HCC-2998 colon)
3.77 µM: TGI (HT29 colon)
2.16 µM: TGI (SK-MEL-5 melanoma)
4.47 µM: TGI (NCI-H460 lung)
5.17 µM: TGI (UACC-257 melanoma)
6.57 µM: TGI (CAKI-1 renal)
3.84 µM: TGI (MALME-3M melanoma)
7.05 µM: TGI (HOP-62 NSCLC)
17.6 µM: TGI (NCI/ADR-RES ovarian)
active: GI50 (SW-620 colon) 0.377 µM | GI50 (SR leukemia) 0.268 µM | GI50 (HT29 colon) 0.363 µM | GI50 (HCT-116 colon) 0.406 µM
22.2 µM: TGI (OVCAR-8 ovarian)
16.2 µM: TGI (786-0 renal)
16.8 µM: TGI (MDA-MB-435)
16 µM: TGI (RPMI-8226 leukemia)
19.7 µM: TGI (A498 renal)
28.1 µM: TGI (IGROV1 ovarian)
23.4 µM: TGI (OVCAR-5 ovarian)

O=C1c2cc3c(cc2CC12Cc1cc4c(cc1C2=O)CCC4)CCC3
> 100 µM: TGI (SK-MEL-28 melanoma) | TGI (SF-295 CNS) | TGI (MDA-MB-231 breast) | TGI (UO-31 renal) | TGI (SNB-75 CNS) | TGI (NCI-H522 lung) | TGI (K-562 leukemia) | TGI (SW-620 colon) | TGI (RXF 393 renal) | TGI (BT-549 breast) | TGI (SF-268 CNS) | TGI (SR leukemia) | TGI (SN12C renal) | TGI (IGROV1 ovarian) | TGI (RPMI-8226 leukemia) | TGI (HT29 colon) | TGI (DU-145 prostate) | TGI (CCRF-CEM leukemia) | TGI (PC-3 prostate) | TGI (HCT-116 colon) | TGI (NCI/ADR-RES ovarian) | TGI (NCI-H226 lung) | TGI (A549 NSCLC) | TGI (OVCAR-3 ovarian) | TGI (LOX IMVI melanoma) | TGI (NCI-H460 lung) | TGI (M14 melanoma) | TGI (EKVX NSCLC) | TGI (HOP-62 NSCLC) | TGI (KM12 colon) | TGI (T-47D breast) | TGI (SK-OV-3 ovarian) | TGI (SK-MEL-2 melanoma) | TGI (NCI-H23 lung) | TGI (HL-60(TB) leukemia) | TGI (MOLT-4 leukemia) | TGI (COLO 205 colon) | TGI (MCF7 breast) | TGI (786-0 renal) | TGI (UACC-257 melanoma) | TGI (OVCAR-5 ovarian) | TGI (SNB-19 CNS) | TGI (CAKI-1 renal) | TGI (HCT-15 colon) | TGI (UACC-62 melanoma) | TGI (U251 CNS) | TGI (HS 578T breast) | TGI (HCC-2998 colon) | TGI (ACHN renal) | TGI (OVCAR-8 ovarian) | TGI (SK-MEL-5 melanoma) | TGI (MDA-MB-435) | TGI (MALME-3M melanoma) | TGI (TK-10 renal) | TGI (A498 renal) | TGI (SF-539 CNS)
